Literature values, collected in US8454566B2, “Methods and compositions for the inhibition of biofilms on medical devices” (Medtronic MiniMed, Inc., priority 2003, dated 2013).

Target: avidin (Gallus gallus, UniProt P02701)
Details: avidin tetramer binds 4 biotin molecules in solution, noncovalent interaction

Chain of avidin (P02701 25-152): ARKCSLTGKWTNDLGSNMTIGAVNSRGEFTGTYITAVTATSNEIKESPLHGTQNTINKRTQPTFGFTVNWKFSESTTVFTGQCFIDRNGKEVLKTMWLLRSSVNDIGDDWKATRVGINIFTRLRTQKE

## O=C(O)CCCC[C@@H]1SC[C@@H]2NC(=O)N[C@@H]21 [biotin]
  binding constant: about 10^15 M^−1
